The text below walks through data of article PMC6272317, “Design, Synthesis and Antitubercular Activity of Certain Nicotinic Acid Hydrazides” (Molecules, 2015).

≈ marks a conversion by molar mass, not a printed value. Like-named read-outs stand apart in the source and are kept apart here.

Series [1] concerns M. tuberculosis (RCMB 010126). Nature of the series: microplate Alamar blue assay (MABA), in vitro antimycobacterial activity. The class given is cell-based, Mycobacterium tuberculosis. The settings on record: for Mean of Inhibition %: test concentration not stated; for MIC: visual MIC. On the technique in general: Resazurin is reduced to fluorescent resorufin, in cell work by metabolically active cells.

Series [2] deals with PC-3 prostate cancer cell line. Nature of the series: SRB cytotoxicity assay, PC-3. The settings on record: for IC50: 72 h; for cytotoxicity (in words): PC-3.
Series [3] relates to HT-29 colon cancer cell line. In words: SRB cytotoxicity assay, HT-29. The settings on record: for IC50: Homo sapiens, HT-29, 72 h; for cytotoxicity (in words): HT-29. Background: The SRB assay estimates cell density from bound dye.
Series [4] concerns MCF-7 breast cancer cell line. Also on record: method as in PMID 25499988. The settings on record: previous study ref 40, cited from earlier work; for IC50: MCF-7, 72 h; for cytotoxicity (in words): MCF-7.
The test system of series [5] is A-549 human lung cancer cell line. On the set-up: method as in PMID 25499988. The settings on record: previous study ref 40, cited from earlier work; for IC50: A549, 72 h; for cytotoxicity (in words): A549.
For series [6], the system named is HepG-2 liver cancer cell line. Also on record: method as in PMID 25499988. The settings on record: previous study ref 40, cited from earlier work; for IC50: HepG2, 72 h; for cytotoxicity (in words): HepG2.
Setting [7] is: M. tuberculosis RCMB 010126, MABA.
Where [8] appears, read: Mycobacterium tuberculosis, RCMB010126, M. tuberculosis RCMB 010126, MABA, read-out: MIC.

For the compound `Cc1nc(-c2ccccc2)ccc1C(=O)NN` [Compound 4a], the “Mean of Inhibition %” value in series [1] (setting [7]) is recorded as 42.52 ± 0.63%. Further, the MIC (in general, the least concentration at which growth counts as inhibited) in series [1] (setting [8]) amounted to 25 mg/L (≈ 110 µM).

For the compound `Cc1ccc(-c2ccc(C(=O)NN)c(C)n2)cc1` [Compound 4b], the “Mean of Inhibition %” value in series [1] (setting [7]) was found to be 36.33 ± 0.58%. In addition, the minimum inhibitory concentration (MIC) in series [1] (setting [8]) was determined as 25 mg/L (≈ 104 µM).

Turning to `Cc1nc(-c2ccc(F)cc2)ccc1C(=O)NN` [Compound 4c, 6-(4-fluorophenyl)-2-methylnicotinohydrazide], in series [1] (setting [7]), the “Mean of Inhibition %” value was “NA (No Activity (>100 µg/mL))”. Besides, in series [1] (M. tuberculosis, MABA), the “antimycobacterial activity (in words)” value is given as “complete loss of activity”. Moreover, the MIC in series [1] (setting [8]) was over 100 mg/L.

Regarding `Cc1nc(-c2ccc(Cl)cc2)ccc1C(=O)NN` [Compound 4d], in series [1] (setting [7]), the MIC was 100 mg/L (≈ 382 µM) and the “Mean of Inhibition %” value stood at 12.45 ± 0.58%. Further, the MIC in series [1] (setting [8]) was determined as 50 mg/L (≈ 191 µM).

Take `Cc1nc(-c2ccc(Br)cc2)ccc1C(=O)NN` [Compound 4e, 6-(4-Bromophenyl)-2-methylnicotinohydrazide]: the melting point (commonly the temperature of the solid-liquid transition) was 213 to 215 °C. Besides, in series [1] (setting [7]), the MIC stood at 50 mg/L (≈ 163 µM) and the “Mean of Inhibition %” value amounted to 20.63 ± 0.63%. The minimum inhibitory concentration (MIC) in series [1] (setting [8]) amounted to 100 mg/L (≈ 327 µM).

As to `COc1ccc(-c2ccc(C(=O)NN)c(C)n2)cc1` [Compound 4f, 6-(4-Methoxyphenyl)-2-methylnicotinohydrazide], the “Mean of Inhibition %” value in series [1] (setting [7]) is reported as 42.63 ± 0.16%. For the same compound, in series [1] (setting [8]), the MIC was determined as 25 mg/L (≈ 97.2 µM).

Consider `COc1ccc(-c2ccc(C(=O)NN)c(C)n2)cc1OC` [Compound 4g, 6-(3,4-Dimethoxyphenyl)-2-methylnicotinohydrazide], for which the melting point was in the range of 204 to 205 °C. Also, the “Mean of Inhibition %” value in series [1] (setting [7]) was determined as 22.63 ± 0.16%. The minimal inhibitory concentration (MIC) in series [1] (setting [8]) was 50 mg/L (≈ 174 µM).

As for `COc1cc(-c2ccc(C(=O)NN)c(C)n2)cc(OC)c1OC` [Compound 4h, 2-Methyl-6-(3,4,5-trimethoxyphenyl)nicotinohydrazide], the “Mean of Inhibition %” value in series [1] (setting [7]) amounted to 18.32 ± 0.72%. The MIC in series [1] (setting [8]) came out at 50 mg/L (≈ 158 µM).

For `Cc1nc(-c2cccs2)ccc1C(=O)NN` [Compound 4i], in series [1] (setting [7]), the “Mean of Inhibition %” value stood at 22.63 ± 0.20%. In addition, the MIC in series [1] (setting [8]) was 50 mg/L (≈ 214 µM).

Compound `Cc1nc(-c2ccc(Br)cc2)ccc1C(=O)NN=Cc1ccccc1` [Compound 7a, N′-Benzylidene-6-(4-bromophenyl)-2-methylnicotinohydrazide] returned a melting point of 270 to 272 °C. Also, the “Mean of Inhibition %” value in series [1] (setting [7]) is “NA (No Activity (>100 µg/mL))”. Besides, the MIC in series [1] (setting [8]) was over 100 mg/L.

With `Cc1nc(-c2ccc(Br)cc2)ccc1C(=O)NN=Cc1ccc(F)cc1` [Compound 7b, 6-(4-Bromophenyl)-N'-(4-fluorobenzylidene)-2-methylnicotinohydrazide], the melting point is 252 to 254 °C. In series [1] (setting [7]), the “Mean of Inhibition %” value is listed as “NA (No Activity (>100 µg/mL))”. The MIC in series [1] (setting [8]) was over 100 mg/L.

For the compound `Cc1nc(-c2ccc(Br)cc2)ccc1C(=O)NN=Cc1ccc(Cl)cc1` [Compound 7c, 6-(4-Bromophenyl)-N'-(4-chlorobenzylidene)-2-methylnicotinohydrazide], the melting point was in the range of 265 to 267 °C. Besides, in series [1] (setting [7]), the “Mean of Inhibition %” value was “NA (No Activity (>100 µg/mL))”. In series [1] (setting [8]), the MIC was over 100 mg/L.

`Cc1nc(-c2ccc(Br)cc2)ccc1C(=O)NN=Cc1ccc(Cl)cc1Cl` [Compound 7d, 6-(4-Bromophenyl)-N'-(2,4-dichlorobenzylidene)-2-methylnicotinohydrazide] yielded a melting point of 269 to 271 °C. Also, in series [1] (setting [7]), the “Mean of Inhibition %” value is 13.57 ± 0.72%. Besides, the MIC in series [1] (setting [8]) stood at 100 mg/L (≈ 216 µM).

Take `COc1ccc(C=NNC(=O)c2ccc(-c3ccc(Br)cc3)nc2C)cc1` [Compound 7e, 6-(4-Bromophenyl)-N'-(4-methoxybenzylidene)-2-methylnicotinohydrazide]: the melting point was 251 to 253 °C. In addition, the “Mean of Inhibition %” value in series [1] (setting [7]) is listed as “NA (No Activity (>100 µg/mL))”. In series [1] (setting [8]), the MIC was over 100 mg/L.

As to `Cc1nc(-c2ccc(Br)cc2)ccc1C(=O)NN=Cc1ccc2ccccc2c1` [Compound 7f, 6-(4-Bromophenyl)-2-methyl-N'-(naphthalen-2-ylmethylene)nicotinohydrazide], the melting point lay in the range of 273 to 275 °C. The “Mean of Inhibition %” value in series [1] (setting [7]) was found to be 14.32 ± 0.58%. In addition, the MIC in series [1] (setting [8]) is 100 mg/L (≈ 225 µM).

In the case of `Cc1nc(-c2ccc(F)cc2)ccc1C(=O)N/N=C1\C(=O)Nc2ccccc21` [Compound 8a], the IC50 in series [2], in series [3], in series [4], in series [5] and in series [6] was over 200 µM each time. Moreover, in series [1] (setting [7]), the “Mean of Inhibition %” value is recorded as 31.44 ± 0.58%. Also, the MIC in series [1] (setting [8]) was 25 mg/L (≈ 66.8 µM).

Turning to `Cc1nc(-c2ccc(F)cc2)ccc1C(=O)N/N=C1\C(=O)Nc2ccc(Cl)cc21` [Compound 8b], the IC50 in series [2], in series [3], in series [4], in series [5] and in series [6] was over 200 µM throughout. The “cytotoxicity (in words)” value in series [2], in series [3], in series [4], in series [5] and in series [6] was “devoid of apparent cytotoxicity” each time. Besides, the minimum inhibitory concentration (MIC) in series [1] (setting [7]) and in series [1] (setting [8]) was 12.5 mg/L (≈ 30.6 µM) each time. Also, the “Mean of Inhibition %” value in series [1] (setting [7]) is given as 52.63 ± 0.58%.

Take `Cc1nc(-c2ccc(F)cc2)ccc1C(=O)N/N=C1\C(=O)Nc2ccc(Br)cc21` [Compound 8c]: the IC50 in series [2], in series [3], in series [4], in series [5] and in series [6] was over 200 µM throughout. Further, the “cytotoxicity (in words)” value in series [2], in series [3], in series [4], in series [5] and in series [6] was “devoid of apparent cytotoxicity” in each case. Moreover, the “Mean of Inhibition %” value in series [1] (setting [7]) was found to be 77.42 ± 0.93%. In series [1] (setting [8]), the minimum inhibitory concentration (MIC) was determined as 6.25 mg/L (≈ 13.8 µM).

For `COc1cccc2c1C(=O)c1c(O)c3c(c(O)c1C2=O)C[C@@](O)(C(=O)CO)C[C@@H]3O[C@H]1C[C@H](N)[C@H](O)[C@H](C)O1` [Doxorubicin, reference compound], the IC50 – broadly, the point on the concentration scale where inhibition reaches its midpoint – in series [2] was 6.5 ± 1.07 µM; in series [3] it was 7.3 ± 1.11 µM; in series [4], 6.1 ± 1.95 µM; in series [5], 7.6 ± 1.37 µM; in series [6], 6.9 ± 2.05 µM.

`NNC(=O)c1ccncc1` [Isoniazide, Isoniazid, reference compound]: the MIC in series [1] (setting [8]) came to 0.75 mg/L (≈ 5.47 µM).

Turning to `NC(=O)c1cnccn1` [Pyrazinamid, pyrazinamide, reference compound], in series [1] (setting [7]), the “Mean of Inhibition %” value was 93.25 ± 0.63%. In addition, the MIC in series [1] (setting [8]) is 3.21 mg/L (≈ 26.1 µM).
